Test results as given in ChEMBL document CHEMBL1146038, “Hassallidin B--second antifungal member of the Hassallidin family” (2006).
≈ marks a conversion by molar mass, not a printed value. Positions of bridges follow the written chain, without caps; N, C: chain ends. Non-standard residues stand in square brackets, D forms with d. Residues, ends and D or L forms follow the SMILES beside them. *: point of attachment. X3 = CCCCCCCCCCCC(O[C@@H]1O[C@@H](C)[C@H](O)[C@@H](O)[C@H]1O)C(O)C(=O)*; X2 = OC[C@H]1O[C@@H](*)[C@@H](O)[C@@H](O)[C@@H]1O; NMeT = CN[C@H](C(=O)O)[C@@H](C)O; X1 = CCCCCCCCCCCC(O)C(O)C(=O)*; Dhb = C/C=C(\N)C(=O)O

Columns and labels:
Format in all cases: functional
[1] = tested on: Nakaseomyces glabratus; experiment: Antifungal activity against Candida glabrata ATCC 90030
[2] = tested on: Candida parapsilosis; experiment: Antifungal activity against Candida parapsilosis ATCC 22019; conditions: Lodderomyces parapsilosis
[3] = tested on: Nakaseomyces glabratus; experiment: Antifungal activity against Candida glabrata DSM 11950
[4] = tested on: Cryptococcus neoformans; experiment: Antifungal activity against Cryptococcus neoformans DSM 6973
[5] = tested on: Candida albicans; experiment: Antifungal activity against Candida albicans SC 5314
[6] = tested on: Candida albicans; experiment: Antifungal activity against Candida albicans ATCC 90028
[7] = tested on: Pichia kudriavzevii; experiment: Antifungal activity against Candida krusei ATCC 90878
[8] = tested on: Candida albicans; experiment: Antifungal activity against Candida albicans ATCC 24433
[9] = tested on: Candida tropicalis; experiment: Antifungal activity against Candida tropicalis ATCC 90874
[10] = tested on: Pichia kudriavzevii; experiment: Antifungal activity against Candida krusei ATCC 6258
[11] = tested on: Cryptococcus neoformans; experiment: Antifungal activity against Cryptococcus neoformans ATCC 90112
[12] = tested on: Cryptococcus neoformans; experiment: Antifungal activity against Cryptococcus neoformans ATCC 34543
[13] = tested on: Cryptococcus neoformans; experiment: Antifungal activity against Cryptococcus neoformans CBS 6955
[14] = tested on: Candida tropicalis; experiment: Antifungal activity against Candida tropicalis ATCC 750
[15] = tested on: Candida parapsilosis; experiment: Antifungal activity against Candida parapsilosis ATCC 90018; conditions: Lodderomyces parapsilosis
[16] = tested on: Candida albicans; experiment: Antifungal activity against Candida albicans ATCC 44374

SMILES: C/C=C1\NC(=O)[C@H](Cc2ccc(O)cc2)NC(=O)[C@H]([C@@H](C)O)NC(=O)[C@@H](NC(=O)[C@@H](NC(=O)C(O)C(CCCCCCCCCCC)O[C@@H]2O[C@@H](C)[C@H](O)[C@@H](O)[C@H]2O)[C@@H](C)O)[C@@H](C)OC(=O)[C@H](CCC(N)=O)NC(=O)[C@H]([C@@H](C)O[C@@H]2O[C@H](CO)[C@@H](O)[C@H](O)[C@@H]2O)N(C)C(=O)CNC(=O)[C@H](CCC(N)=O)NC1=O (some centres undefined) (X3-TTTY[Dhb]QG[NMeT](X2)Q; ester 2-C)
- MFC [1]: 16 µg/mL (≈ 10.5 µM)
- MIC [1]: 16 µg/mL (≈ 10.5 µM)
- MFC [2]: 16 µg/mL (≈ 10.5 µM)
- MIC [2]: 8 µg/mL (≈ 5.23 µM)
- MFC [3]: 16 µg/mL (≈ 10.5 µM)
- MIC [3]: 16 µg/mL (≈ 10.5 µM)
- MFC [4]: 8 µg/mL (≈ 5.23 µM)
- MIC [4]: 8 µg/mL (≈ 5.23 µM)
- MFC [5]: 8 µg/mL (≈ 5.23 µM)
- MIC [5]: 8 µg/mL (≈ 5.23 µM)
- MFC [6]: 8 µg/mL (≈ 5.23 µM)
- MIC [6]: 8 µg/mL (≈ 5.23 µM)
- MFC [7]: 16 µg/mL (≈ 10.5 µM)
- MIC [7]: 16 µg/mL (≈ 10.5 µM)
- MFC [8]: 16 µg/mL (≈ 10.5 µM)
- MIC [8]: 16 µg/mL (≈ 10.5 µM)
- MFC [9]: 16 µg/mL (≈ 10.5 µM)
- MIC [9]: 8 µg/mL (≈ 5.23 µM)
- MFC [10]: 16 µg/mL (≈ 10.5 µM)
- MIC [10]: 8 µg/mL (≈ 5.23 µM)
- MFC [11]: 8 µg/mL (≈ 5.23 µM)
- MIC [11]: 8 µg/mL (≈ 5.23 µM)
- MFC [12]: 8 µg/mL (≈ 5.23 µM)
- MIC [12]: 8 µg/mL (≈ 5.23 µM)
- MFC [13]: 8 µg/mL (≈ 5.23 µM)
- MIC [13]: 8 µg/mL (≈ 5.23 µM)
- MFC [14]: 16 µg/mL (≈ 10.5 µM)
- MIC [14]: 16 µg/mL (≈ 10.5 µM)
- MFC [15]: > 16 µg/mL
- MIC [15]: 16 µg/mL (≈ 10.5 µM)
- MFC [16]: 16 µg/mL (≈ 10.5 µM)
- MIC [16]: 8 µg/mL (≈ 5.23 µM)

SMILES: C/C=C1\NC(=O)[C@H](Cc2ccc(O)cc2)NC(=O)[C@H]([C@@H](C)O)NC(=O)[C@@H](NC(=O)[C@@H](NC(=O)C(O)C(O)CCCCCCCCCCC)[C@@H](C)O)[C@@H](C)OC(=O)[C@H](CCC(N)=O)NC(=O)[C@H]([C@@H](C)O[C@@H]2O[C@H](CO)[C@@H](O)[C@H](O)[C@@H]2O)N(C)C(=O)CNC(=O)[C@H](CCC(N)=O)NC1=O (some centres undefined) [HASSALLIDIN A] (X1-TTTY[Dhb]QG[NMeT](X2)Q; ester 2-C)
- MFC [1]: 8 µg/mL (≈ 5.79 µM)
- MIC [1]: 8 µg/mL (≈ 5.79 µM)
- MFC [2]: 8 µg/mL (≈ 5.79 µM)
- MIC [2]: 8 µg/mL (≈ 5.79 µM)
- MFC [3]: 8 µg/mL (≈ 5.79 µM)
- MIC [3]: 8 µg/mL (≈ 5.79 µM)
- MFC [4]: 8 µg/mL (≈ 5.79 µM)
- MIC [4]: 4 µg/mL (≈ 2.89 µM)
- MFC [5]: 8 µg/mL (≈ 5.79 µM)
- MIC [5]: 4 µg/mL (≈ 2.89 µM)
- MFC [6]: 4 µg/mL (≈ 2.89 µM)
- MIC [6]: 4 µg/mL (≈ 2.89 µM)
- MFC [7]: 8 µg/mL (≈ 5.79 µM)
- MIC [7]: 8 µg/mL (≈ 5.79 µM)
- MFC [8]: 4 µg/mL (≈ 2.89 µM)
- MIC [8]: 4 µg/mL (≈ 2.89 µM)
- MFC [9]: 8 µg/mL (≈ 5.79 µM)
- MIC [9]: 8 µg/mL (≈ 5.79 µM)
- MFC [10]: 8 µg/mL (≈ 5.79 µM)
- MIC [10]: 8 µg/mL (≈ 5.79 µM)
- MFC [11]: 8 µg/mL (≈ 5.79 µM)
- MIC [11]: 4 µg/mL (≈ 2.89 µM)
- MFC [12]: 8 µg/mL (≈ 5.79 µM)
- MIC [12]: 4 µg/mL (≈ 2.89 µM)
- MFC [13]: 8 µg/mL (≈ 5.79 µM)
- MIC [13]: 4 µg/mL (≈ 2.89 µM)
- MFC [14]: 4 µg/mL (≈ 2.89 µM)
- MIC [14]: 4 µg/mL (≈ 2.89 µM)
- MFC [15]: 16 µg/mL (≈ 11.6 µM)
- MIC [15]: 8 µg/mL (≈ 5.79 µM)
- MFC [16]: 4 µg/mL (≈ 2.89 µM)
- MIC [16]: 4 µg/mL (≈ 2.89 µM)
